Assays:
[1] = tested on: Rhizoctonia solani; assay: Test E: turf brown patch, preventive spray on creeping bent grass (Agrostis sp.) seedlings, disease rating; assay type: in vivo; settings: 100 = 100% disease control; for Test E rating (% disease control): preventive spray, 0 = no control; for Test E disease control rating: 0 = no disease control relative to controls
Description: A dash (-) indicates no test results.

[2] = tested on: Phytophthora infestans; assay type: in vivo; settings: tomato late blight, preventive spray; 100 = 100% disease control, 0 = no control
[3] = tested on: Erysiphe graminis f sp. tritici; assay: Test J: wheat powdery mildew, preventive spray on wheat seedlings, visual disease rating; settings: for Test J rating (% disease control) / Test J disease control rating: wheat powdery mildew, 100 = 100% disease control; for Test J disease control rating: sprayed the day before inoculation, 0 = no disease control relative to controls
[4] = tested on: Alternaria solani; assay: Test C: tomato early blight, preventive spray on tomato seedlings, visual disease rating; settings: for Test C rating (% disease control) / Test C disease control rating: tomato early blight, 100 = 100% disease control; for Test C disease control rating: 0 = no disease control relative to controls
[5] = tested on: Puccinia recondita f. sp. tritici; assay: Test I: wheat leaf rust, preventive spray on wheat seedlings, visual disease rating; settings: for Test I rating (% disease control) / Test I disease control rating: wheat leaf rust, 100 = 100% disease control; for Test I disease control rating: sprayed the day before inoculation, 0 = no disease control relative to controls
Description: (§1) General protocol for preparing test suspensions for Tests A-J: the test compounds were first dissolved in acetone in an amount equal to 3% of the final volume and then suspended at the desired concentration (in ppm) in acetone and purified water (50/50 mix by volume) containing 250 ppm of the surfactant Trem® 014 (polyhydric alcohol esters). The resulting test suspensions were then used in Tests A-J. Spraying a 200 ppm test suspension to the point of run-off on the test plants was the equivalent of a rate of 500 g/ha. Unless otherwise indicated, the rating values indicate a 200 ppm test suspension was used. (An asterisk “*” next to the rating value indicates a 40 ppm test suspension was used.)
The test suspension was sprayed to the point of run-off on wheat seedlings. The following day the seedlings were inoculated with a spore suspension of Puccinia recondita f. sp. tritici (the causal agent of wheat leaf rust) and incubated in a saturated atmosphere at 20° C. for 24 h, and then moved to a growth chamber at 20° C. for 7 days, after which time visual disease ratings were made

[6] = tested on: Botrytis cinerea; assay: Test B: tomato Botrytis, preventive spray on tomato seedlings, visual disease rating; settings: for Test B rating (% disease control) / Test B disease control rating: tomato Botrytis, 100 = 100% disease control; for Test B disease control rating: 0 = no disease control relative to controls
[7] = tested on: Septoria nodorum; assay: Test F: Septoria glume blotch, preventive spray on wheat seedlings, visual disease rating; settings: for Test F rating (% disease control) / Test F disease control rating: 100 = 100% disease control; for Test F disease control rating: 0 = no disease control relative to controls
Description: as §1
The test suspension was sprayed to the point of run-off on wheat seedlings. The following day the seedlings were inoculated with a spore suspension of Septoria nodorum (the causal agent of Septoria glume blotch) and incubated in a saturated atmosphere at 24° C. for 48 h, and then moved to a growth chamber at 20° C. for 6 days, after which time visual disease ratings were made.

[8] = tested on: Septoria tritici; assay: Test G: wheat leaf blotch, preventive spray on wheat seedlings, visual disease rating; settings: for Test G rating (% disease control) / Test G disease control rating: wheat leaf blotch, 100 = 100% disease control; for Test G disease control rating: sprayed the day before inoculation, 0 = no disease control relative to controls
[9] = tested on: Puccinia recondita f. sp. tritici; assay: Test H: wheat leaf rust, curative spray on inoculated wheat seedlings, visual disease rating; settings: for Test H rating (% disease control): wheat leaf rust, 100 = 100% disease control
[10] = preventive spray, 0 = no control
[11] = Septoria glume blotch on wheat, preventive spray, 0 = no control
[12] = 0 = no control relative to controls
[13] = preventive, 0 = no control relative to controls
[14] = Septoria glume blotch, 0 = no control relative to controls
[15] = curative, 0 = no control relative to controls

Cc1nn(C)c(Nc2ccc(F)cc2F)c1-c1ccc(F)cc1Cl [compound 13]
Test E rating (% disease control) [1]: 98% | Test D rating (% disease control) [2]: 0% | Test J rating (% disease control) [3, 10]: 99% | Test C rating (% disease control) [4, 10]: 100% | Test I rating (% disease control) [5, 10]: 100% | Test B rating (% disease control) [6, 10]: 99% | Test F rating (% disease control) [7, 11]: 64% | Test G rating (% disease control) [8, 10]: 100%

Cc1nn(C)c(Nc2cc(F)cc(F)c2)c1-c1ccc(F)cc1Cl [compound 9]
Test E rating (% disease control) [1]: 55% | Test D rating (% disease control) [2]: 0% | Test J rating (% disease control) [3, 10]: 97% | Test C rating (% disease control) [4, 10]: 0% | Test I rating (% disease control) [5, 10]: 98% | Test B rating (% disease control) [6, 10]: 99% | Test F rating (% disease control) [7, 11]: 0% | Test G rating (% disease control) [8, 10]: 100%

Cc1nn(C)c(N(c2c(F)cc(F)cc2F)S(C)(=O)=O)c1-c1ccc(F)cc1Cl [compound 304]
Test E disease control rating [1]: 0% | Test J disease control rating [3]: 0% | Test C disease control rating [4]: 0% | Test I disease control rating [5]: 0% | Test B disease control rating [6]: 0% | Test F disease control rating ([7]; Septoria glume blotch on wheat): 0% | Test G disease control rating [8]: 16%

COCN(c1c(F)cc(F)cc1F)c1c(-c2ccc(F)cc2Cl)c(C)nn1C [compound 309]
Test E disease control rating [1]: 92% | Test J disease control rating [3]: 99% | Test C disease control rating [4]: 61% | Test I disease control rating [5]: 0% | Test B disease control rating [6]: 97% | Test F disease control rating ([7]; Septoria glume blotch on wheat): 60% | Test G disease control rating [8]: 100%

Cc1nn(C)c(Nc2ccccc2F)c1-c1ccc(F)cc1Cl [compound 12]
Test E rating (% disease control) [1]: 99% | Test D rating (% disease control) [2]: 0% | Test J rating (% disease control) [3, 10]: 100% | Test C rating (% disease control) [4, 10]: 93% | Test I rating (% disease control) [5, 10]: 99% | Test B rating (% disease control) [6, 10]: 99% | Test F rating (% disease control) [7, 11]: 0% | Test G rating (% disease control) [8, 10]: 100%

Cc1nn(C)c(Nc2ccc(F)cc2F)c1-c1ccccc1F [compound 181]
Test J rating (% disease control) [3, 12]: 98% | Test C rating (% disease control) [4, 12]: 44% | Test I rating (% disease control) [5, 13]: 60% | Test B rating (% disease control) [6, 12]: 94% | Test F rating (% disease control) [7, 14]: 0% | Test H rating (% disease control) [9, 15]: 0% | Test G rating (% disease control) [8, 12]: 100%

Cc1nn(C)c(Nc2ccc(F)cc2F)c1-c1ccc(Cl)cc1Cl [Compound 69, 4-(2,4-Dichlorophenyl)-N-(2,4-difluorophenyl)-1,3-dimethyl-1H-pyrazol-5-amine]
pest or weed control at 200 µg/mL ([3]; Blumeria graminis, in Triticum aestivum, 192 h, read-out: Test J rating (% disease control)): 100% | pest or weed control at 200 µg/mL ([4]; Alternaria solani, in Solanum lycopersicum, 168 h, read-out: Test C rating (% disease control)): 73% | pest or weed control at 200 µg/mL ([5]; 192 h, read-out: Test I rating (% disease control)): 99% | pest or weed control at 200 µg/mL ([6]; Botrytis cinerea, in Solanum lycopersicum, 120 h, read-out: Test B rating (% disease control)): 100% | pest or weed control at 200 µg/mL ([7]; Parastagonospora nodorum, in Triticum aestivum, 192 h, read-out: Test F rating (% disease control)): 60% | pest or weed control at 200 µg/mL ([9]; 144 h, read-out: Test H rating (% disease control)): 91% | pest or weed control at 200 µg/mL ([8]; Zymoseptoria tritici, in Triticum aestivum, 504 h, read-out: Test G rating (% disease control)): 99%

Cc1ccc(Oc2c(-c3c(F)cc(F)cc3F)c(C)nn2C)cc1C#N [compound 250]
Test J rating (% disease control) [3, 12]: 100% | Test C rating (% disease control) [4, 12]: 0% | Test I rating (% disease control) [5, 13]: 86% | Test B rating (% disease control) [6, 12]: 98% | Test F rating (% disease control) [7, 14]: 0% | Test H rating (% disease control) [9, 15]: 0% | Test G rating (% disease control) [8, 12]: 77%

COc1ccc(Nc2c(-c3ccc(Cl)cc3)c(C)nn2C)c(Cl)c1 [compound 60]
Test J rating (% disease control) [3, 10]: 0% | Test C rating (% disease control) [4, 10]: 0% | Test I rating (% disease control) [5, 10]: 79% | Test B rating (% disease control) [6, 10]: 75% | Test F rating (% disease control) [7, 11]: 0% | Test H rating (% disease control) ([9]; curative spray, 0 = no control): 59% | Test G rating (% disease control) [8, 10]: 97%

Cc1nn(C)c(Nc2ncc(F)cc2F)c1-c1ccccc1C(F)(F)F [compound 280]
Test J rating (% disease control) [3, 12]: 87% | Test C rating (% disease control) [4, 12]: 0% | Test I rating (% disease control) [5, 13]: 18% | Test B rating (% disease control) [6, 12]: 99% | Test F rating (% disease control) [7, 14]: 0% | Test H rating (% disease control) [9, 15]: 8% | Test G rating (% disease control) [8, 12]: 96%

From patent US10448639B2, “Fungicidal pyrazoles” (FMC CORPORATION, priority 2009, dated 2019)
